From patent US20240101535A1, “DIHYDROISOQUINOLINONE DERIVATIVE AND APPLICATION THEREOF” (ETERN BIOPHARMA (SHANGHAI) CO., LTD., priority 2020, published 2024)

Biological target: WDR5 protein (22-334aa) with MLL1 polypeptide (3672-3773aa) (Homo sapiens, UniProt P61964)
Test: WDR5-MLL PPI inhibitory activity test (HTRF)
Assay type: binding
Settings: His-tagged WDR5 and biotin-tagged MLL1 polypeptide
From the text: Test Example 1: WDR5-MLL PPI Inhibitory Activity Test
Effect of the compounds on WDR5 (WD Repeat Domain 5) and MLL1 (mixed-lineage leukemia 1) peptides at molecular level.
The effect of the compound on the interaction of WDR5 protein (22-334aa) with MLL1 polypeptide (3672-3773aa) was detected by HTRF (Homogeneous Time-Resolved Fluorescence) technology. When the N-terminal His-tagged WDR5 recognized by the Anti-6His-Eu cryptate donor interacts with the biotin-tagged MLL1 polypeptide recognized by the streptavidin-APC receptor, the donor and acceptor are pulled close enough to produce fluorescence resonance energy transfer (FRET). […] Therefore, the decrease in FRET signal can reflect the compound's inhibition on the interaction of WDR5 with MLL1 polypeptide.
The compound to be tested was diluted 3-fold with DMSO. […] Then the compound was diluted with reaction buffer (25 mM HEPES pH=7.5, 100 mM NaCl, 0.05% Tween 20) to control the final concentration of DMSO at 0.5%. In a 384-well plate, 1 μL of compound and 3 μL of 42 nM WDR5 protein were added, centrifuged at 1000 rpm for 1 min, incubated at room temperature for 60 min, followed by adding 3 μL of 333 nM MLL1 polypeptide with incubation at room temperature for 10 min, and followed by adding 3 μL of a mixed liquid of Anti-6His-Eu cryptate and streptavidin-APC with centrifugation at 1000 rpm for 1 mi and incubation at room temperature protected from light for 60 min, using a multifunction microplate reader (EnVision®2105) to read the signal. The following controls were set up per plate: control group (1 μL with 5% DMSO reaction buffer, 3 μL of 42 nM WDR5, 3 μL of MLL1 polypeptide, 3 μL of Anti-6His-Eu cryptate and streptavidin-APC). Blank group (1 μL reaction buffer with 5% DMSO, 3 μL reaction buffer, 3 μL MLL1 polypeptide, 3 μL Anti-6His-Eu cryptate and streptavidin-APC). The test data was calculated according to the signal ratio of two beams of fluorescence at different wavelengths: (665 nm signal/620 nm signal)*10000. […] The IC50 value was calculated using XLfit software.

`CCOc1cc([C@H](C)N2C[C@@]3(CC3(F)F)c3c(CN(C)C)cc(Cn4ccnc4NC)cc3C2=O)ncc1F` (stereo in doubt) [Compound 97, (R)-5′-((dimethylamino)methyl)-2′-((S)-1-(4-ethoxy-5-fluoropyridine-2-yl)ethyl)-2,2-difluoro-7′-((2-(methylamino)-1H imidazol-1-yl)methyl)-2′, 3′-dihydro-1′H-spiro[cyclopropan-1,4′-isoquinoline]-1′-one] and `CCOc1cc([C@@H](C)N2C[C@@]3(CC3(F)F)c3c(CN(C)C)cc(Cn4ccnc4NC)cc3C2=O)ncc1F` [Compound 90, (R)-5′-((dimethylamino)methyl)-2′-((R)-1-(4-ethoxy-5-fluoropyridine-2-yl)ethyl)-2,2-difluoro-7′-((2-(methylamino)-1H imidazol-1-yl)methyl)-2′, 3′-dihydro-1′H-spiro[cyclopropan-1,4′-isoquinoline]-1′-one] cannot be ordered by IC50: < 20 nM for the first, < 20 nM for the second.

`CCOc1cc([C@H](C)N2CC3(CC3)c3c(CN4CCCCC4)cc(Cn4ccnc4NC)cc3C2=O)ncc1F` [Compound 7] and `CCOc1cc([C@H](C)N2CC3(CCC3)c3c(CN4CCN(C(C)=O)CC4)cc(Cn4ccnc4NC)cc3C2=O)ncc1F` [Compound 86, (S)-5′-((4-acetylpiperazin-1-yl)methyl)-2′-(1-(4-ethoxy-5-fluoropyridine-2-yl)ethyl)-7′-((2-(methylamino)-1H-imidazol-1-yl)methyl)-2′,3′-dihydro-1′H-spiro[cyclobutyl-1,4′-isoquinoline]-1′-one] cannot be ordered by IC50: < 20 nM for the first, < 20 nM for the second.

`CCOc1cc([C@H](C)N2CC3(CC3)c3c(CN(C)CC#N)cc(Cn4ccnc4NC)cc3C2=O)ncc1F` [Compound 43] and `CCOc1cc([C@H](C)N2CC3(CC3)c3c(CN4CC(N(C)C)C4)cc(Cn4ccnc4NC)cc3C2=O)ncc1F` [Compound 58, (S)-5′-((3-(dimethylamino)azetidinyl-1-yl)methyl)-2′-(1-(4-ethoxy-5-fluoropyridine-2-yl)ethyl)-7′-((2-(methylamino)-1H-imidazol-1-yl)methyl)-2′,3′-dihydro-1′H-spiro[cyclopropan-1,4′-isoquinoline]-1′-one] cannot be ordered by IC50: < 20 nM for the first, < 20 nM for the second.

First: CCOc1cc([C@H](C)N2CC3(CCC3)c3c(CN4CCNCC4)cc(Cn4ccnc4NC)cc3C2=O)ncc1C#N [Compound 49, (S)-4-ethoxy-6-(1-(7′-((2-(methylamino)-1H-imidazol-1-yl)methyl)-1′-one-5′-(piperazin-1-ylmethyl)-1′H-spiro[cyclobutan-1,4′-isoquinoline]-2′(3′H)-yl)ethyl)nicotinonitrile]
Second: CCOc1cc(C(C)N2CC3(CCC3)c3c(CN4CC5(CNC5)C4)cc(Cn4ccnc4NC)cc3C2=O)ncc1C#N (centres unmarked) [Compound 102]
The IC50 of the first is lower: < 20 nM for the first, 20 to 100 nM for the second. The first is the more potent here.

`CCOc1cc([C@H](C)N2CC3(CC3)c3c(CN4CCN(CC(F)(F)F)CC4)cc(Cn4ccnc4NC)cc3C2=O)ncc1F` [Compound 62] and `CCOc1cc([C@H](C)N2CC3(CC3)c3c(CN4CCN(CCC(F)(F)F)CC4)cc(Cn4ccnc4NC)cc3C2=O)ncc1F` [Compound 65] cannot be ordered by IC50: < 20 nM for the first, < 20 nM for the second.

First: CCOc1cc(CN2CC3(CC3)c3c(CN4CCN(C)CC4)cc(Cn4ccnc4NC)cc3C2=O)ncc1F [Compound 69, 2′-((4-ethoxy-5-fluoropyridine-2-yl)methyl)-7′-((2-(methylamino)-1H-imidazol-1-yl)methyl)-5′-((4-methylpiperazin-1-yl)methyl)-2′,3′-dihydro-1′H-spiro[cyclopropan-1,4′-isoquinoline]-1′-one]
Second: CCOc1cc(CN2CC3(CC3)c3c(CN(C)C)cc(Cn4ccnc4NC)cc3C2=O)ncc1F [Compound 76, 5′-((dimethylamino)methyl)-2′-((4-ethoxy-5-fluoropyridine-2-yl)methyl)-7′-((2-(methylamino)-1H-imidazol-1-yl)methyl)-2′,3′-dihydro-1′H-spiro[cyclopropan-1,4′-isoquinoline]-1′-one]
The IC50 of the first is lower: < 20 nM for the first, 20 to 100 nM for the second.

`CCOc1cc([C@H](C)N2CC3(CCC3)c3c(CN4CCC(N(C)C)CC4)cc(Cn4ccnc4NC)cc3C2=O)ncc1C#N` [Compound 74] and `CCOc1cc([C@H](C)N2CC3(CCC3)c3c(CN4CCC(NC)CC4)cc(Cn4ccnc4NC)cc3C2=O)ncc1C#N` [Compound 75, (S)-4-ethoxy-6-(1-(7′-((2-(methylamino)-1H-imidazol-1-yl)methyl)-5′-((4-(methylamino)piperidin-1-yl)methyl)-1′-one-1′H-spiro[cyclobutan-1,4′-isoquinoline]-2′(3′H)-yl)ethyl)nicotinonitrile] cannot be ordered by IC50: < 20 nM for the first, < 20 nM for the second.

First: CCOc1cc(C(C)N2CC3(CCC3)c3c(CN(C)C)cc(Cn4ccc5ncccc54)cc3C2=O)ncc1C#N (centres unmarked) [Compound 108, 6-(1-(7′-((1Hpyrrol[3,2-b]pyridine-1-yl)methyl)-5′-((dimethylamino)methyl)-1′-oxo-1′H-spiro[cyclobutan-1,4′-isoquinoline]-2′(3′H)-yl)ethyl)-4-ethoxynicotinonitrile]
Second: CCOc1cc(CN2CC3(CCC3)c3c(CN(C)C)cc(Cn4ccnc4C)cc3C2=O)ncc1C#N [Compound 117, 6-((5′-((dimethylamino)methyl)-7′-((2-methyl-1H-imidazol-1-yl)methyl)-1′-oxo-1′H-spiro[cyclobutan-1,4′-isoquinoline]-2′-3′H-yl)methyl)-4-ethoxynicotinonitrile]
The IC50 of the first is higher: 20 to 100 nM for the first, < 20 nM for the second.

`CCOc1cc([C@H](C)N2CC3(CC3)c3c(C(=O)N(C)C)cc(Cn4ccnc4NC)cc3C2=O)ncc1F` [Compound 110] and `CCOc1cc([C@H](C)N2CC3(CC3)c3c(CN(C)C)cc(Cn4cnc5c4CCCC5)cc3C2=O)ncc1F` [Compound 114, (S)-5′-((dimethylamino)methyl)-2′-(1-(4-ethoxy-5-fluoropyridine-2-yl)ethyl)-7′-((4,5,6,7-tetrahydro-1H-benzo[d]imidazol-1-yl)methyl)-2′,3′-dihydro-1′H-spiro[cyclopropan-1,4′-isoquinoline]-1′-one] cannot be ordered by IC50: < 20 nM for the first, < 20 nM for the second.

First: CCOc1cccc2c1CCC2N1CC2(CCC2)c2c(CN(C)C)cc(Cn3ccnc3NC)cc2C1=O (centres unmarked) [Compound 113, 5′-((dimethylamino)methyl)-2′-(4-ethoxy-2,3-dihydro-1H-indene-1-yl)-7′-((2-(methylamino)-1H-imidazol-1-yl)methyl)-2′,3′-dihydro-1′H-spiro[cyclobutan-1,4′-isoquinoline]-1′-one]
Second: CNc1nccn1Cc1cc(CN(C)C)c2c(c1)C(=O)N(C(C)c1ccc(O)c(O)c1)CC21CCC1 (centres unmarked) [Compound 115, 2′-(1-(3,4-dihydroxylphenyl)ethyl)-5′-((dimethylamino)methyl)-7′-((2-(methylamino)-1H-imidazol-1-yl)methyl)-2′,3′-dihydro-1′H-spiro[cyclobutan-1,4′-isoquinoline]-1′-one]
The IC50 of the first is lower: < 20 nM for the first, 20 to 100 nM for the second.
